Where two headings read alike, the source gives them in different places.

The values that follow come from article PMC10610505, “Synthesis and Biological Evaluation of Some New 3-Aryl-2-thioxo-2,3-dihydroquinazolin-4(1H)-ones and 3-Aryl-2-(benzylthio)quinazolin-4(3H)-ones as Antioxidants; COX-2, LDHA, α-Glucosidase and α-Amylase Inhibitors; and Anti-Colon Carcinoma and Apoptosis-Inducing Agents” (Pharmaceuticals, 2023).

Experiment [1] can be described thus: DPPH radical scavenging assay. In kind it is biochemical. The following applies: for Mean IC50 for scavenging initial DPPH radicals: mean ± SD of three replicates; for IC50: mean ± SD, converted from mg/mL, read-out: Mean IC50 for scavenging initial DPPH radicals (converted). An excerpt: In principle, the antioxidant power of a compound in this assay is correlated to its tendency to reduce the stable, purple-colored DPPH radical through a hydrogen atom transfer (HAT) mechanism and/or a single electron transfer mechanism, thereby converting it to the yellow-colored 2,2-diphenyl-1-picrylhydrazine, whereby this reduction is accompanied by a depletion in the amount of the initial DPPH radicals and a change in the absorbance of the test solution accordingly, which can be detected relative to the blank solution at λ = 517 nm.
The antioxidant potencies of all synthesized compounds were investigated using a 1,1 diphenyl-2-picrylhydrazyl (DPPH) radical scavenging assay according to the protocol described by Bersuder et al.. In brief, a 0.5 mL volume of DPPH ethanolic solution was mixed with an equal volume of each sample concentration (i.e., the test compound or butylated hydroxytoluene, BHT, which was used as the reference antioxidant in the positive control experiment), shaken strongly, and incubated at room temperature for 1 h in darkness. The absorbance of the residual DPPH radicals was measured at λ = 519 nm and compared to the negative control (without the test compound or reference antioxidant). The DPPH radical scavenging power was calculated using the following formula: scavenging efficiency (%) = (1 − Acompound/AControl) × 100, where Acompound and Acontrol are the absorbance of the tested compound and the negative control, respectively. […] Additionally, the ± SD values were calculated from three independent triplicate measurements.
In general terms: The DPPH test is a chemical assay of radical scavenging.

The test system of experiment [2] is LoVo human colon carcinoma cells. The experiment in a line: Viability assay (LDH release), LoVo. Format: cell-based. Conditions: Homo sapiens, LoVo, 48 h, read-out: Mean % of viable cells ± SD, LoVo. The procedure: (§1) The anticancer activities of all the synthesized compounds were assessed against two human colon carcinoma cell lines, namely LoVo and HCT-116 (Table 6), via the determination of the mean percents of the viable cancerous cells remaining after being incubated with 200 µg/mL of each test compound for 48 h using LDH assay.
(§2) The samples were diluted in Dulbecco’s Modified Eagle’s Medium, consisting of 10% fetal bovine serum (FBS), added to cells grown and cultured for 24 h in a 5% CO2-humidified incubator at 37 °C. Thereafter, the activity of lactate dehydrogenase released from damaged cells was determined in the collected supernatant aliquots using an ELISA end-point assay (Benchmark Plus, Bio-Rad, CA, USA); 0.1% Triton X-100 in the assay medium and the assay medium only were used as the positive and negative controls, respectively. Cell viability was expressed as a relative percentage of the OD values (at 550 nm) for compound-treated cells (final concentration of 200 µg /mL) and the negative control, which was shown as the mean % ± SD (n = 3). The results of the viability assays for the potential cytotoxic candidates were compared with the % of viable human umbilical vein endothelial cells (HUVEC) at the same concentration. These cells were grown in Dulbecco’s Modified Eagle’s Medium (PAN-Biotech; Barcelona, Spain) containing 10% FBS (Sigma Aldrich; St. Quentin-Fallavier, France), 2 mM Glutamine (Sigma Aldrich), 100 units/mL penicillin and […] streptomycin (Life Technologies; Paisley, UK).
For orientation: LDH leaks from cells whose membrane has failed.

Experiment [3] has as its target purified recombinant human LDHA protein (Homo sapiens, UniProt P00338). Nature of the experiment: Lactate dehydrogenase A (LDHA) inhibitory assay. Conditions: for Fold change of LDHA inhibition as compared to 0.1 mg/mL: % inhibition at 0.200 mg/mL divided by % inhibition at 0.100 mg/mL; for inhibition at 100 µg/mL: at 0.1 mg/mL; for inhibition at 100 µg/mL / inhibition at 200 µg/mL: read-out: LDHA mean % inhibition ± SD; for inhibition at 200 µg/mL: at 0.2 mg/mL. In kind it is biochemical. The procedure:
The LDHA inhibitory effectiveness was investigated by measuring the amounts of consumed NADH [73]. […] The fluorescence of NADH, which has an excitation wavelength of 340 nm and an emission wavelength of 460 nm, was detected using a spectrofluorometer. […] The LDHA inhibitory efficiency was expressed as an inhibition percentage, which was determined via a comparison with the negative control experiments.

In another experiment the target is T1, COX-2 (Homo sapiens, UniProt P35354).
T1 construct: purchased Cayman Chemical Company 701080
T1 sequence (P35354 18-604): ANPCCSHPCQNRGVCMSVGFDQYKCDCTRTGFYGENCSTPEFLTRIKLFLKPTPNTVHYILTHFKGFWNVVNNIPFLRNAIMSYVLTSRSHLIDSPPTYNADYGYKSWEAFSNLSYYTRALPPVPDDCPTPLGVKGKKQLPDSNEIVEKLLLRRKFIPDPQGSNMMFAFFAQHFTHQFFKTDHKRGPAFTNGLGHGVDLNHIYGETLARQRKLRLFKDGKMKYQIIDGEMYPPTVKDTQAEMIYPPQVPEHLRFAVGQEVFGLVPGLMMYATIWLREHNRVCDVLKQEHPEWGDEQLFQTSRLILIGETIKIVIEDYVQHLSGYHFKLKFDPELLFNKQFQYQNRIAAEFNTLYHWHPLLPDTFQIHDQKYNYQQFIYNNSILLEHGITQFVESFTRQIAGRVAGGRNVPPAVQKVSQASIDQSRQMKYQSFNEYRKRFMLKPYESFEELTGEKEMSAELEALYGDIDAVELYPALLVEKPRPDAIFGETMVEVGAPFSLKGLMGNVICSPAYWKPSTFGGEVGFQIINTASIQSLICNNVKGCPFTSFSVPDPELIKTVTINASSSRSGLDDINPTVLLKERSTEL
Nature of the experiment: COX-2 inhibitory screening assay (Cayman kit). Format: biochemical. Conditions: for Increase in COX-2 inhibitory efficiency by duplicating the concentration: % inhibition at 0.200 mg/mL divided by % inhibition at 0.100 mg/mL; for inhibition at 100 µg/mL: at 0.100 mg/mL; for inhibition at 100 µg/mL / inhibition at 200 µg/mL: read-out: COX-2 mean % inhibition ± SD; for inhibition at 200 µg/mL: at 0.200 mg/mL. How it is done: Each compound of the two series, 3a–h and 5a–h, was resuspended in 100% DMSO at a final concentration of 10 mg/mL. […] Briefly, 10 µL of the tested compound was added to a mixture of the reaction buffer solution (160 µL of 0.1 M Tris-HCl, pH 8.0, in the presence of 2 mM phenol and 5 mM EDTA), COX-2 (10 µL) and heme (10 µL). After a 10 min incubation at 37 °C, the reaction was started by adding arachidonic acid (10 µL), rapidly mixed and kept at 37 °C for 2 min. PGF2α generated via PGH2 reduction with stannous chloride (30 µL) was incubated at room temperature for 5 min. The PGF2α amount was then determined via an enzyme immunoassay. Prior to incubation with the COX-2 reaction (at room temperature 18 h), the 96-well plate was previously coated with a mouse anti-rabbit monoclonal antibody. Unbound reagents were removed by washing the plate followed by adding Ellman’s reagent to the well. The reaction product displaying a distinct yellow color was measured at 410 nm using a UV microplate reader. The % inhibition was calculated by comparing the PGF2α produced in the compound-treated samples with a control sample, using the following equation: % inhibition is equal to [([PGF2α]control − [PGF2α]sample) /[PGF2α ]control ] × 100. […] The COX-2 inhibitory efficiency was expressed as an inhibition percentage, which was determined via a comparison with the negative control experiments.

Another experiment addresses α-amylase. The experiment in a line: In vitro α-amylase (AA) inhibition assay. Conditions: mean ± SD of three replicates; for IC50: read-out: Mean IC50 α-Amylase (AA).
The subject of experiment [4] is HCT-116 human colon carcinoma cells. The experiment in a line: Viability assay (LDH release), HCT-116. Format: cell-based. Conditions: Homo sapiens, read-out: Mean % of viable cells ± SD, HCT-116. The procedure:
as §1, §2

Method for α-amylase: Then, 180 µL of Labtest (the amylase substrate) was added and the samples were incubated for 8 min, followed by measuring the first reaction at 620 nm to obtain (X1). Afterwards, the reaction mixture was incubated for an additional 5 min at 37 °C; then, the second reaction was measured to obtain the final reading (X2). […] The results were expressed as IC50 µg/mL (as well as µM) and were determined from the standard curves.

One may read the IC50 as the concentration at which inhibition is half-maximal. Usually inhibition stands for the share of the control response that was lost under treatment. On to `O=c1c2cc(Br)ccc2[nH]c(=S)n1-c1ccc(C(F)(F)F)cc1` [Compound 3e, 6-Bromo-2-thioxo-3-(4-trifluoromethyl-phenyl)-2,3-dihydro-1H-quinazolin-4-one], for which, in experiment [1], the “Mean IC50 for scavenging initial DPPH radicals” value amounted to 290 ± 28 µg/mL and the IC50 is 723 µM. Besides, the viability at 200 µg/mL in experiment [2] is 90.7 ± 3.51%. For the same compound, in experiment [3], the “Fold change of LDHA inhibition as compared to 0.1 mg/mL” value (“Fold change of LDHA inhibition” for short) worked out at 1.62 fold, the inhibition at 100 µg/mL was found to be 22.1 ± 1.2% and the inhibition at 200 µg/mL was 36 ± 1.34%. At COX-2, the “Increase in COX-2 inhibitory efficiency by duplicating the concentration” value (“Increase in COX-2 inhibitory efficiency” for short) is recorded as 1.50 fold, the inhibition at 100 µg/mL was found to be 10.4 ± 1.7% and the inhibition at 200 µg/mL was found to be 15.7 ± 0.495%. Moreover, at α-amylase, the “Mean IC50 α-Amylase (AA)” value is listed as 252.00 ± 4.583 µg/mL and the 50% inhibitory concentration (IC50) was 628 µM. Further, in experiment [4] (HCT-116, 48 h), the viability at 200 µg/mL worked out at 92.3 ± 2.52%.
As for `O=c1c2cc(Cl)ccc2nc(SCc2ccccc2F)n1-c1cccc(C(F)(F)F)c1` [Compound 5a, 2-(2-Fluoro-benzylsulfanyl)-6-chloro-3-(3-trifluoromethyl-phenyl)-3H-quinazolin-4-one], in experiment [1], the “Mean IC50 for scavenging initial DPPH radicals” value was determined as 80 ± 2 µg/mL and the IC50 was 172 µM. Besides, the viability at 200 µg/mL in experiment [2] (200 µg/mL) turned out to be 90.3 ± 1.53%. For the same compound, in experiment [3], the “Fold change of LDHA inhibition” value is 1.62 fold, the inhibition at 100 µg/mL came to 24 ± 1.7% and the inhibition at 200 µg/mL stood at 38.9 ± 1.13%. On COX-2, the “Increase in COX-2 inhibitory efficiency” value is on record as 1.85 fold, the inhibition at 100 µg/mL is 34.2 ± 1.7% and the inhibition at 200 µg/mL came to 63.1 ± 5.87%. Moreover, on α-amylase, the “Mean IC50 α-Amylase (AA)” value turned out to be 86.667 ± 4.509 µg/mL and the IC50 is 186 µM. Besides, in experiment [4] (HCT-116, 200 µg/mL, 48 h), the viability at 200 µg/mL was determined as 89.7 ± 3.06%.
Consider `O=c1c2cc(Cl)ccc2[nH]c(=S)n1-c1ccc(C(F)(F)F)cc1` [Compound 3d, 6-Chloro-2-thioxo-3-(4-trifluoromethyl-phenyl)-2,3-dihydro-1H-quinazolin-4-one], for which, in experiment [1], the “Mean IC50 for scavenging initial DPPH radicals” value came to 179 ± 16 µg/mL and the IC50 was 502 µM. Moreover, the viability at 200 µg/mL in experiment [2] turned out to be 87 ± 1.73%. In experiment [3], the “Fold change of LDHA inhibition” value came to 1.59 fold, the inhibition at 100 µg/mL was 33.5 ± 2.12% and the inhibition at 200 µg/mL is 53.5 ± 2.12%. Further, at COX-2, the “Increase in COX-2 inhibitory efficiency” value is on record as 1.62 fold, the inhibition at 100 µg/mL was found to be 20.2 ± 1.13% and the inhibition at 200 µg/mL was determined as 32.8 ± 2.48%. At α-amylase, the “Mean IC50 α-Amylase (AA)” value is recorded as 335.667 ± 3.055 µg/mL and the IC50 is 941 µM. The viability at 200 µg/mL in experiment [4] (HCT-116, 48 h) came to 96 ± 1.73%.
Consider `COc1cc2nc(SCc3ccc(Cl)cc3)n(-c3ccc([N+](=O)[O-])cc3)c(=O)c2cc1OC` [Compound 5h, 2-(4-Chloro-benzylsulfanyl)-6,7-dimethoxy-3-(4-nitro-phenyl)-3H-quinazolin-4-one], for which, in experiment [1], the “Mean IC50 for scavenging initial DPPH radicals” value was 364 ± 20 µg/mL and the IC50 was 752 µM. Moreover, the viability at 200 µg/mL in experiment [2] (200 µg/mL) was determined as 81.7 ± 3.06%. Besides, in experiment [3], the “Fold change of LDHA inhibition” value is 1.42 fold, the inhibition at 100 µg/mL amounted to 15.3 ± 1.2% and the inhibition at 200 µg/mL is 21.8 ± 1.34%. Also, at COX-2, the “Increase in COX-2 inhibitory efficiency” value was 2.58 fold, the inhibition at 100 µg/mL turned out to be 11.2 ± 0.99% and the inhibition at 200 µg/mL turned out to be 28.9 ± 0.283%. Besides, on α-amylase, the “Mean IC50 α-Amylase (AA)” value came out at 117.667 ± 3.055 µg/mL and the IC50 is 243 µM. In addition, in experiment [4] (HCT-116, 200 µg/mL, 48 h), the viability at 200 µg/mL was determined as 91 ± 2.65%.
For the compound `COc1ccc(Br)c(CSc2nc3ccc(Br)cc3c(=O)n2-c2ccc(C(F)(F)F)cc2)c1` [Compound 5e, 2-(2-Bromo-5-methoxybenzylsulfanyl)-6-bromo-3-(4-trifluoromethyl-phenyl)-3H-quinazolin-4-one], in experiment [1], the “Mean IC50 for scavenging initial DPPH radicals” value was 225 ± 21 µg/mL and the IC50 is 375 µM. In experiment [2] (200 µg/mL), the viability at 200 µg/mL came to 64.3 ± 2.08%. Also, in experiment [3], the “Fold change of LDHA inhibition” value worked out at 1.29 fold, the inhibition at 100 µg/mL was found to be 15.2 ± 1.77% and the inhibition at 200 µg/mL was found to be 19.6 ± 2.33%. For the same compound, on COX-2, the “Increase in COX-2 inhibitory efficiency” value is 1.67 fold, the inhibition at 100 µg/mL turned out to be 31 ± 2.83% and the inhibition at 200 µg/mL stood at 51.6 ± 4.88%. On α-amylase, the “Mean IC50 α-Amylase (AA)” value is given as 150.333 ± 3.512 µg/mL and the IC50 was 250 µM. Further, the viability at 200 µg/mL in experiment [4] (HCT-116, 200 µg/mL, 48 h) is 79.7 ± 2.52%.
